From US9403808B2, “Pyrazine derivatives” (Hoffmann-La Roche Inc., priority 2011, dated 2016)
Like-named read-outs stand apart in the source and are kept apart here.

What was measured:
human CB2 receptors = human CB2 receptors (Homo sapiens (Human), UniProt P34972); experiment: functional cAMP assay, CB2; format: cell-based
Protocol: (§1) CHO cells expressing human CB1 or CB2 receptors are seeded 17-24 hours prior to the experiment 50.000 cells per well in a black 96 well plate with flat clear bottom (Corning Costar #3904) in DMEM (Invitrogen No. 31331), 1×HT supplement, with 10% fetal calf serum and incubated at 5% CO2 and 37° C. in a humidified incubator. The growth medium was exchanged with Krebs Ringer Bicarbonate buffer with 1 mM IBMX and incubated at 30° C. for 30 min. Compounds were added to a final assay volume of 100 μl and incubated for 30 min at 30° C. Using the cAMP-Nano-TRF detection kit the assay (Roche Diagnostics) was stopped by the addition of 50 μl lysis reagent (Tris, NaCl, 1.5% Triton X100, 2.5% NP40, 10% NaN3) and 50 μl detection solutions (20 μM mAb Alexa700-cAMP 1:1, and 48 μM Ruthenium-2-AHA-cAMP) and shaken for 2 h at room temperature. The time-resolved energy transfer is measured by a TRF reader (Evotec Technologies GmbH), equipped with a ND:YAG laser as excitation source. The plate is measured twice with the excitation at 355 nm and at the emission with a delay of 100 ns and a gate of 100 ns, total exposure time 10s at 730 (bandwidth 30 nm) or 645 nm (bandwidth 75 nm), respectively. The FRET signal is calculated as follows: FRET=T730-Alexa730-P(T645-B645) with P=Ru730-B730/Ru645-B645, where T730 is the test well measured at […], T645 is the test well measured at 645 nm, B730 and B645 are the buffer controls at 730 nm and 645 nm, respectively. cAMP content is determined from the function of a standard curve spanning from 10 μM to 0.13 nM cAMP.
(§2) EC50 values were determined using Activity Base analysis (ID Business Solution, Limited). The EC50 values for a wide range of cannabinoid agonists generated from this assay were in agreement with the values published in the scientific literature.

human CB1 receptors = human CB1 receptors (Homo sapiens (Human), UniProt P21554); experiment: functional cAMP assay, CB1; format: cell-based
human CB1 receptors, sequence (P21554 whole entry): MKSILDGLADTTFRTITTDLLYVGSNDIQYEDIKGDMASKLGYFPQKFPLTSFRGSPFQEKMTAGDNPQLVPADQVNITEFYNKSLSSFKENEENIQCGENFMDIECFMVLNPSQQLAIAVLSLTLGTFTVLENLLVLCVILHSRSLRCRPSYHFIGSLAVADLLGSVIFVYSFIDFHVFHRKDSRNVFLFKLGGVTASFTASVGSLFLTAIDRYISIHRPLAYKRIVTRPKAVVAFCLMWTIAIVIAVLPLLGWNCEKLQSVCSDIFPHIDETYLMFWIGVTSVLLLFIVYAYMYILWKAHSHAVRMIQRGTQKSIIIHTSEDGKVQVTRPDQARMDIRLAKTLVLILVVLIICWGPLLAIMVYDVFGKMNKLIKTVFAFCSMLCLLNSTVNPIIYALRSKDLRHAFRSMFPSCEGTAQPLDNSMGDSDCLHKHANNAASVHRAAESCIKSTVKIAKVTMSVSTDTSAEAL
Protocol: as §1, §2

[1] = functional cAMP assay, CHO cells expressing human CB2, read-out: human CB2 EC50
[2] = functional cAMP assay, CHO cells expressing human CB1, read-out: human CB1 EC50

human CB2 receptors, sequence (P34972 whole entry): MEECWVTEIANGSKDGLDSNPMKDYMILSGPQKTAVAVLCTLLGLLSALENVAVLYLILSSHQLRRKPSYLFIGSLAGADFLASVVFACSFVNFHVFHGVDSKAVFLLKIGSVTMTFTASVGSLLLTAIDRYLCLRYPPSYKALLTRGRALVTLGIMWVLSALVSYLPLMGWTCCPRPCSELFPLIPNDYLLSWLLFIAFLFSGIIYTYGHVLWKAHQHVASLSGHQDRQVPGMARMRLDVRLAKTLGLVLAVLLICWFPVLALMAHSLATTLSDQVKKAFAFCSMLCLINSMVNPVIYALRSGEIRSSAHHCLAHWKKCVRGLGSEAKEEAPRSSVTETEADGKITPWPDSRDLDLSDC

Row | SMILES | EC50 (human CB2 receptors; [1]) | further results
1 | NC(=O)[C@H]1CCCC[C@H]1NC(=O)c1cnc(N2CC(F)(F)C2)c(OCC2CC2)n1 (single isomer, unassigned) [Example 81] | – | EC50 (human CB2 receptors): 31.2 nM
2 | Cc1nc([C@@H](NC(=O)c2cnc(C3CC3)c(OCC3CC3)n2)C2CC2)no1 (stereo in doubt) [Example 40, 5-Cyclopropyl-6-cyclopropylmethoxy-pyrazine-2-carboxylic acid [(SR)-cyclopropyl-(5-methyl-[1,2,4]oxadiazol-3-yl)-methyl]-amide] | – | EC50 (human CB2 receptors): 30.8 nM; EC50 (human CB1 receptors): > 10000 nM
3 | Cc1nc([C@H](NC(=O)c2cnc(C3CC3)c(OCC3CC3)n2)C2CC2)no1 (stereo in doubt) [Example 41, 5-Cyclopropyl-6-cyclopropylmethoxy-pyrazine-2-carboxylic acid [(RS)-cyclopropyl-(5-methyl-[1,2,4]oxadiazol-3-yl)-methyl]-amide] | – | EC50 (human CB2 receptors): 518 nM; EC50 (human CB1 receptors): > 10000 nM
4 | Cc1nc([C@@H](NC(=O)c2cnc(N3CC(F)(F)C3)c(OCC3CC3)n2)C2CC2)no1 (stereo in doubt) [Example 42, 6-Cyclopropylmethoxy-5-(3,3-difluoro-azetidin-1-yl)-pyrazine-2-carboxylic acid [(SR)-cyclopropyl-(5-methyl-[1,2,4]oxadiazol-3-yl)-methyl]-amide] | – | EC50 (human CB2 receptors): 28 nM; EC50 (human CB1 receptors): > 10000 nM
5 | Cc1nc([C@H](NC(=O)c2cnc(N3CC(F)(F)C3)c(OCC3CC3)n2)C2CC2)no1 (stereo in doubt) [Example 43, 6-Cyclopropylmethoxy-5-(3,3-difluoro-azetidin-1-yl)-pyrazine-2-carboxylic acid [(RS)-cyclopropyl-(5-methyl-[1,2,4]oxadiazol-3-yl)-methyl]-amide] | – | EC50 (human CB2 receptors): 40.9 nM; EC50 (human CB1 receptors): > 10000 nM
6 | Cc1nc(C(C)(C)NC(=O)c2cnc(C3CC3)c(-c3cccc(Cl)c3)n2)no1 [Example 1, 6-(3-Chloro-phenyl)-5-cyclopropyl-pyrazine-2-carboxylic acid [1-methyl-1-(5-methyl-[1,2,4]oxadiazol-3-yl)-ethyl]amide] | 88.1 nM | EC50 (human CB1 receptors; [2]): 1150 nM
7 | CC(C)(C#N)NC(=O)c1cnc(C2CC2)c(-c2cccc(Cl)c2)n1 [Example 2, 6-(3-Chloro-phenyl)-5-cyclopropyl-pyrazine-2-carboxylic acid (cyano-dimethyl-methyl)-amide] | 104 nM | EC50 (human CB1 receptors; [2]): > 10000 nM
8 | Cc1nc(C2(NC(=O)c3cnc(C4CC4)c(-c4cccc(Cl)c4)n3)CCC2)no1 [Example 3, 6-(3-Chloro-phenyl)-5-cyclopropyl-pyrazine-2-carboxylic acid [1-(5-methyl-[1,2,4]oxadiazol-3-yl)-cyclobutyl]-amide] | 156 nM | EC50 (human CB1 receptors; [2]): > 10000 nM
9 | Cc1nc(C(C)(C)NC(=O)c2cnc(N3CC(F)(F)C3)c(-c3cccc(Cl)c3)n2)no1 [Example 4, 6-(3-Chloro-phenyl)-5-(3,3-difluoro-azetidin-1-yl)-pyrazine-2-carboxylic acid [1-methyl-1-(5-methyl-[1,2,4]oxadiazol-3-yl)-ethyl]-amide] | 108 nM | EC50 (human CB1 receptors; [2]): > 10000 nM
10 | Cc1nc(C(C)(C)NC(=O)c2cnc(N3CCC3)c(-c3cccc(Cl)c3)n2)no1 [Example 5, 5-Azetidin-1-yl-6-(3-chloro-phenyl)-pyrazine-2-carboxylic acid [1-methyl-1-(5-methyl-[1,2,4]oxadiazol-3-yl)-ethyl]-amide] | 140 nM | EC50 (human CB1 receptors; [2]): > 10000 nM
11 | CC(C)(NC(=O)c1cnc(C2CC2)c(-c2cccc(Cl)c2)n1)c1nccs1 [Example 6, 6-(3-Chloro-phenyl)-5-cyclopropyl-pyrazine-2-carboxylic acid (1-methyl-1-thiazol-2-yl-ethyl)-amide] | 48 nM | EC50 (human CB1 receptors; [2]): 892 nM
12 | O=C(NN1CCCCC1)c1cnc(C2CC2)c(-c2cccc(Cl)c2)n1 [Example 7, 6-(3-Chloro-phenyl)-5-cyclopropyl-pyrazine-2-carboxylic acid piperidin-1-ylamide] | 255 nM | EC50 (human CB1 receptors; [2]): > 10000 nM
13 | NC(=O)[C@@H](NC(=O)c1cnc(C2CC2)c(OCC2CC2)n1)c1ccc(F)cc1 [Example 63, 5-Cyclopropyl-6-cyclopropylmethoxy-pyrazine-2-carboxylic acid [(S)-carbamoyl-(4-fluoro-phenyl)-methyl]-amide] | 96.6 nM | –
14 | NC(=O)[C@@H](NC(=O)c1cnc(N2CC(F)(F)C2)c(OCC2CC2)n1)c1ccc(F)cc1 [Example 64, 6-Cyclopropylmethoxy-5-(3,3-difluoro-azetidin-1-yl)-pyrazine-2-carboxylic acid [(S)-carbamoyl-(4-fluoro-phenyl)-methyl]-amide] | 31.2 nM | –
15 | Cc1nc([C@H](CC2CC2)NC(=O)c2cnc(C3CC3)c(OCC3CC3)n2)no1 [Example 65, 5-Cyclopropyl-6-cyclopropylmethoxy-pyrazine-2-carboxylic acid [(S)-2-cyclopropyl-1-(5-methyl-[1,2,4]oxadiazol-3-yl)-ethyl]-amide] | 20.7 nM | –
16 | COC(=O)[C@H](CC(C)C)NC(=O)c1cnc(N2CC(F)(F)C2)c(OCC2CC2)n1 [Example 66, (S)-2-{[6-Cyclopropylmethoxy-5-(3,3-difluoro-azetidin-1-yl)-pyrazine-2-carbonyl]-amino}-4-methyl-pentanoic acid methyl ester] | 0.4 nM | –
17 | CC(C)C[C@H](NC(=O)c1cnc(N2CC(F)(F)C2)c(OCC2CC2)n1)C(=O)NCC(F)(F)F [Example 67, 6-Cyclopropylmethoxy-5-(3,3-difluoro-azetidin-1-yl)-pyrazine-2-carboxylic acid [(S)-3-methyl-1-(2,2,2-trifluoro-ethylcarbamoyl)-butyl]-amide] | 57.6 nM | –
18 | NC(=O)[C@@H](NC(=O)c1cnc(N2CC(F)(F)C2)c(OCC2CC2)n1)c1ccc(Cl)cc1 [Example 68, 6-Cyclopropylmethoxy-5-(3,3-difluoro-azetidin-1-yl)-pyrazine-2-carboxylic acid [(S)-carbamoyl-(4-chloro-phenyl)-methyl]-amide] | 116 nM | –
19 | CC(C)(CCCO)NC(=O)c1cnc(C2CC2)c(OCC2CC2)n1 [Example 69, 5-Cyclopropyl-6-cyclopropylmethoxy-pyrazine-2-carboxylic acid (4-hydroxy-1,1-dimethyl-butyl)-amide] | 47.4 nM | –
20 | Cc1oc(-c2ccccc2)nc1CC(C)(C)NC(=O)c1cnc(C2CC2)c(OCC2CC2)n1 [Example 71, 5-Cyclopropyl-6-cyclopropylmethoxy-pyrazine-2-carboxylic acid [1,1-dimethyl-2-(5-methyl-2-phenyl-oxazol-4-yl)-ethyl]-amide] | 201 nM | –
21 | CC(CC(C)(C)NC(=O)c1cnc(C2CC2)c(OCC2CC2)n1)c1ccncc1 (stereo not drawn) [Example 72, 5-Cyclopropyl-6-cyclopropylmethoxy-pyrazine-2-carboxylic acid (1,1-dimethyl-3-pyridin-4-yl-butyl)-amide] | 92.6 nM | –
22 | COC(=O)C1(NC(=O)c2cnc(N3CC(F)(F)C3)c(OCC3CC3)n2)CCC1 [Example 73, 1-{[6-Cyclopropylmethoxy-5-(3,3-difluoro-azetidin-1-yl)-pyrazine-2-carbonyl]-amino}-cyclobutanecarboxylic acid methyl ester] | 20.5 nM | –
23 | CC(C)[C@H](CC(N)=O)NC(=O)c1cnc(C2CC2)c(OCC2CC2)n1 [Example 76, 5-Cyclopropyl-6-cyclopropylmethoxy-pyrazine-2-carboxylic acid ((S)-1-carbamoylmethyl-2-methyl-propyl)-amide] | 16.3 nM | –
24 | CC(C)[C@H](CC(N)=O)NC(=O)c1cnc(N2CC(F)(F)C2)c(OCC2CC2)n1 [Example 77, 6-Cyclopropylmethoxy-5-(3,3-difluoro-azetidin-1-yl)-pyrazine-2-carboxylic acid ((S)-1-carbamoylmethyl-2-methyl-propyl)-amide] | 6.5 nM | –
25 | Cc1nc([C@](C)(CC2CC2)NC(=O)c2cnc(N3CC(F)(F)C3)c(OCC3CC3)n2)no1 [Example 78, (+)-6-Cyclopropylmethoxy-5-(3,3-difluoro-azetidin-1-yl)-pyrazine-2-carboxylic acid [2-cyclopropyl-1-methyl-1-(5-methyl-[1,2,4]oxadiazol-3-yl)-ethyl]-amide] | 17.4 nM | –
26 | Cc1nc([C@@](C)(CC2CC2)NC(=O)c2cnc(N3CC(F)(F)C3)c(OCC3CC3)n2)no1 [Example 79, (−)-6-Cyclopropylmethoxy-5-(3,3-difluoro-azetidin-1-yl)-pyrazine-2-carboxylic acid [2-cyclopropyl-1-methyl-1-(5-methyl-[1,2,4]oxadiazol-3-yl)-ethyl]-amide] | 4 nM | –
27 | NC(=O)[C@@H]1CCCC[C@@H]1NC(=O)c1cnc(C2CC2)c(OCC2CC2)n1 [Example 82] | 257 nM | –
28 | NC(=O)[C@H]1CCCC[C@H]1NC(=O)c1cnc(C2CC2)c(OCC2CC2)n1 [Example 83] | 44.4 nM | –
